Results from US20150209364A1, “METHOD FOR TREATING EPIDERMOID CARCINOMA” (Johnpro Biotech Inc., priority 2011, published 2015).

Tested on: erlotinib-resistant H1975 cells
Assay: cells
Assay type: cell-based
Settings: Homo sapiens, NCI-H1975, 72 h, read-out: IC50 (cell viability)
Procedure: The cells were plated at 5×10^4/ml in 100 μL of culture medium in a 96-well microtiter plate, followed by incubation with drugs. Cell viability after the treatment was determined using 3-(4,5-dimethylthiazol-2-yl)-5(3-carboxymethoxy-phenyl)-2-(4-sulfophenyl)-2H-tetrazolium (MTS) assay (Promega, Madison, Wis.) per the manufacturer's instruction. Absorbance was measured at 490 nm for MTS assay with an enzyme-linked immunosorbent assay plate reader from MTX Lab Systems, Inc. (Vienna, Va.). […] Each experiment was performed in triplicate, and the results were expressed as mean±SD.

IC50: 75 µM
SMILES: CCN(CC)CCCC(C)Nc1ccnc2cc(Cl)ccc12 (stereo not shown) [chloroquine]
